Test results reported in ChEMBL document CHEMBL3272135, “Quantitative relationships between steroid structure and binding to putative progesterone receptors” (J Med Chem, 1977).

How the values were obtained:
[1] = biological target: T1, Progesterone receptor (Oryctolagus cuniculus) (UniProt P06186); assay: Relative binding affinity to rabbit progesterone receptor
T1 sequence (whole entry): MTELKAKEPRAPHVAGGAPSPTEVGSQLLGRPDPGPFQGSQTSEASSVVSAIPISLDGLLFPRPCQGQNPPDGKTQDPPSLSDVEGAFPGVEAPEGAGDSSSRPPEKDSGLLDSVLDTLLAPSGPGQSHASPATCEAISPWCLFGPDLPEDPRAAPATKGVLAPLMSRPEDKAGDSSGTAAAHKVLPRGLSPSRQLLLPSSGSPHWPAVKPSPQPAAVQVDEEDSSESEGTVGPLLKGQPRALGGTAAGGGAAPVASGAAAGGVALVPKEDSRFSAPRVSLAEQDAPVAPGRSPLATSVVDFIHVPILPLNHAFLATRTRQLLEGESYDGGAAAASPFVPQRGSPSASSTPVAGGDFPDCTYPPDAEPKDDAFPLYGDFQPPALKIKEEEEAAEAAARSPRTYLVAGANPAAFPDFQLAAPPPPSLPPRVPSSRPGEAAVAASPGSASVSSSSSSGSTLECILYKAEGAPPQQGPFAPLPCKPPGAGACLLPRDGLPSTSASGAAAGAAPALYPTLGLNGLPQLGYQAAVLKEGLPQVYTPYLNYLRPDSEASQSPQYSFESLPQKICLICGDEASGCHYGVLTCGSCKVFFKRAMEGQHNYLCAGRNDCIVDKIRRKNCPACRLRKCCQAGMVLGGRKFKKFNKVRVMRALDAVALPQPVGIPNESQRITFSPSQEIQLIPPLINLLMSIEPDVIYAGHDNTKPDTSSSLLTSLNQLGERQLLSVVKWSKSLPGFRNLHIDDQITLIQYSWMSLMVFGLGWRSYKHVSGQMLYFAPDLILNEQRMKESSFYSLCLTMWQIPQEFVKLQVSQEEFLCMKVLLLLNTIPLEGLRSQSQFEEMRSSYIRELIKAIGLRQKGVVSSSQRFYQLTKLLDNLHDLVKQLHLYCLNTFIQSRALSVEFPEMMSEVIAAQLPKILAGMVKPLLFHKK

[2] = biological target: T2, Progesterone receptor (Homo sapiens) (UniProt P06401)
T2 sequence (whole entry): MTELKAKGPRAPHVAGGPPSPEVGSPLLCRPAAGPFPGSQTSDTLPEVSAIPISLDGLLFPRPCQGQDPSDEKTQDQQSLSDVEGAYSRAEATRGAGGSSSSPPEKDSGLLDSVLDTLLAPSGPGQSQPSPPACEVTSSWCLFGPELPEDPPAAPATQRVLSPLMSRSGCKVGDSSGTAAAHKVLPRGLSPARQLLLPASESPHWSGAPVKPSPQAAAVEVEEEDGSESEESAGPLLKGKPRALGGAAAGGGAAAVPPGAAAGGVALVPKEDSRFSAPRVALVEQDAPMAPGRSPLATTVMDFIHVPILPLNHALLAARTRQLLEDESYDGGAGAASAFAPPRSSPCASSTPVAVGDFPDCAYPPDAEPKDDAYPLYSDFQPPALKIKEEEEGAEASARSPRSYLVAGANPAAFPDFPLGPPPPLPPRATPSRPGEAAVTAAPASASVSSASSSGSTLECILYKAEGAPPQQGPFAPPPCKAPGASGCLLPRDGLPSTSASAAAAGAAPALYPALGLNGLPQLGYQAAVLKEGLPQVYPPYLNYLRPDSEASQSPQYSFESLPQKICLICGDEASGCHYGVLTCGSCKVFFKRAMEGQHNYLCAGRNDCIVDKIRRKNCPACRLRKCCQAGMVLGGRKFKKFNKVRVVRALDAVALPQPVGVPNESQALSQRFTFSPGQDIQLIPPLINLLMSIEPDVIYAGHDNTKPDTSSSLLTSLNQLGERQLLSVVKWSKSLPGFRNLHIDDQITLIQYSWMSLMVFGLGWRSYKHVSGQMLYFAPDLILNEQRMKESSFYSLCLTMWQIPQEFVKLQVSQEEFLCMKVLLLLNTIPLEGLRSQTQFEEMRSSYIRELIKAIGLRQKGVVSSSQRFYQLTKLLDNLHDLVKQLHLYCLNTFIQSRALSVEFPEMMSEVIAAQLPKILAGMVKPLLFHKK

Cavia porcellus = organism: Cavia porcellus; assay: Relative binding affinity to guinea pig progesterone receptor
[3] = biological target: T3, Progesterone receptor (Ovis aries) (UniProt Q28590); assay: Relative binding affinity to sheep progesterone receptor
T3 sequence (whole entry): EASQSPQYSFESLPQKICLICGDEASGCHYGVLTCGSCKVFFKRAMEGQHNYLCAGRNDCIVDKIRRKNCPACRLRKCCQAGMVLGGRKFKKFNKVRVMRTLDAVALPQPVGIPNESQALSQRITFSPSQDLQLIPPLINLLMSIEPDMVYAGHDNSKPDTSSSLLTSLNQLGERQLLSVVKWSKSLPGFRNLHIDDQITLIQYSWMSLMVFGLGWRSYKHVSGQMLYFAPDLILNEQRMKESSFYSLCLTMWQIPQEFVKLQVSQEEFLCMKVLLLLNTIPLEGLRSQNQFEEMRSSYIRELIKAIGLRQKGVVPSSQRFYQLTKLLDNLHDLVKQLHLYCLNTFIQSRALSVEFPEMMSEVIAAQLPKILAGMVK

| SMILES | log(RBA) [1] | log(RBA) [2] | log(RBA) (Cavia porcellus) | log(RBA) [3] |
| --- | --- | --- | --- | --- |
| CC(=O)O[C@]1(C(C)=O)CC[C@H]2[C@@H]3C=C(C)C4=CC(=O)CC[C@]4(C)[C@H]3CC[C@@]21C | 2 | 1.94 | -0.3 | 1.51 |
| C[C@H](O)[C@H]1CC[C@H]2[C@@H]3CCC4=CC(=O)CC[C@]4(C)[C@H]3CC[C@]12C | 0.778 | 1 | 0.6 | 0.7 |
| CCCCCC(=O)O[C@]1(C(C)=O)CC[C@H]2[C@@H]3CCC4=CC(=O)CC[C@]4(C)[C@H]3CC[C@@]21C | 1.88 | 1.88 | – | – |
| CC(=O)[C@H]1CC[C@H]2[C@@H]3CCC4=CC(=O)CCC4=C3CC[C@]12C | 2 | – | – | – |
| C#C[C@]1(O)CC[C@H]2[C@@H]3CCC4=CC(=O)CC[C@@H]4[C@H]3CC[C@@]21CCC | 1.54 | – | – | – |
| C#C[C@]1(O)CC[C@H]2[C@@H]3CC[C@H]4C[C@@H](O)CC[C@@H]4[C@H]3CC[C@@]21C | -0.52 | -0.7 | -2 | -1.3 |
| C#C[C@]1(O)CC[C@H]2[C@@H]3CCC4=C[C@@H](O)CC[C@@H]4[C@H]3CC[C@@]21C | 1.3 | 1.4 | -0.22 | 1 |
| CC(=O)O[C@]1(C(C)=O)CC[C@H]2[C@@H]3C[C@H](C)C4=CC(=O)CC[C@]4(C)[C@H]3CC[C@@]21C | 2 | 2.29 | 1.11 | 1.86 |
| CC(=O)[C@H]1CC[C@H]2[C@@H]3CCC4=CC(=O)CC[C@]4(C)[C@H]3CC(=O)[C@]12C | -0.221 | -0.69 | -0.52 | -1 |
| C[C@]12CCC(=O)C[C@@H]1CC[C@@H]1[C@@H]2CC[C@]2(C)[C@@H](O)CC[C@@H]12 | – | 0.3 | – | 0 |
| C#C[C@]1(O)CC[C@H]2[C@@H]3CCC4=CC(=O)CCC4=C3C=C[C@@]21C | 1.3 | – | – | – |
| CC(=O)[C@@]12[C@@H](C[C@H]3[C@@H]4CCC5=CC(=O)CC[C@]5(C)[C@H]4CC[C@@]31C)C2(C)C | 2.38 | 2.11 | 1 | 1.9 |
| CC(=O)[C@H]1CC[C@H]2[C@@H]3CCC4=CC(=O)CC[C@]4(C)[C@H]3C(=O)C[C@]12C | 0.301 | 0 | 0 | -0.097 |
| C#C[C@]1(O)CC[C@H]2[C@@H]3CC[C@H]4C[C@H](O)CC[C@@H]4[C@H]3CC[C@@]21C | -1 | -1 | -2 | -1.52 |
| CC(=O)[C@@]1(C)CC[C@H]2[C@@H]3CCC4=CC(=O)CC[C@@H]4[C@H]3CC[C@@]21C | 2.7 | – | – | – |
| CC(=O)[C@H]1CC[C@H]2[C@@H]3CCC4=CC(=O)CCC4=C3C=C[C@]12C | 1.3 | – | – | – |
| C=CC[C@]1(O)CC[C@H]2[C@@H]3CCC4=CCCC[C@@H]4[C@H]3CC[C@@]21C | 1.08 | 0.48 | -0.7 | 0.6 |
| CC(=O)[C@H]1CC[C@H]2[C@@H]3CCC4=CC(=O)CC[C@]4(CO)[C@H]3CC[C@]12C | -0.301 | -0.52 | -0.22 | -0.52 |
| CC(=O)[C@H]1CC[C@H]2[C@@H]3[C@H](C)CC4=CC(=O)CC[C@]4(C)[C@H]3CC[C@]12C | 1.61 | 1.43 | 1.67 | 1.32 |

| SMILES | log(RBA) [1] | log(RBA) [2] | log(RBA) (Cavia porcellus) | log(RBA) [3] |
| --- | --- | --- | --- | --- |
| CCC(=O)[C@@]1(C)CC[C@H]2[C@@H]3CCC4=CC(=O)CCC4=C3CC[C@@]21C | 2.48 | – | – | – |
| C#C[C@]1(O)CC[C@H]2[C@@H]3CC[C@@H]4C[C@H](O)CC[C@@H]4[C@H]3CC[C@@]21C | -1 | -1 | -2 | -2 |
| CC(=O)[C@H]1CC[C@H]2[C@@H]3CC=C4C[C@@H](O)CC[C@]4(C)[C@H]3CC[C@]12C | -0.301 | -0.69 | -0.52 | – |
| CC(=O)O[C@]1(C(C)=O)CC[C@H]2[C@@H]3CCC4=C(O)C(=O)CC[C@]4(C)[C@H]3CC[C@@]21C | 1.77 | 1.62 | -0.4 | 1.2 |
| CC[C@@H]1C[C@H]2[C@@H]3CCC4=CC(=O)CC[C@]4(C)[C@H]3CC[C@]2(C)[C@H]1C(C)=O | 1.98 | 1.98 | 1.08 | 1.87 |
| CC(=O)[C@@]1(C)CC[C@H]2[C@@H]3CCC4=CC(=O)CCC4=C3CC[C@@]21C | 2.3 | – | – | – |
| C#C[C@]1(OC(C)=O)CC[C@H]2[C@@H]3CCC4=CCCC[C@@H]4[C@H]3CC[C@@]21C | 0 | -0.7 | -2 | -1 |
| CC(=O)[C@@]1(O)CC[C@H]2[C@@H]3CCC4=CC(=O)CC[C@]4(C)[C@H]3CC[C@@]21C | -0.097 | -0.15 | -0.52 | -0.3 |
| C#C[C@]1(OC(C)=O)CC[C@H]2[C@@H]3CCC4=CC(=O)CC[C@@H]4[C@H]3CC[C@@]21C | 2.05 | 1.32 | 0.78 | 1.04 |
| CC(=O)O[C@]1(C(C)=O)CC[C@H]2[C@@H]3C=C(Cl)C4=CC(=O)CC[C@]4(C)[C@H]3CC[C@@]21C | 2.16 | 2.08 | -0.097 | 1.78 |
| C[C@]12CC[C@H]3[C@@H](CCC4=CC(=O)CC[C@@]43C)[C@@H]1CC[C@@H]2C(=O)CO | 1.4 | 1.23 | 1.15 | 1.4 |
| CC(=O)O[C@]1(C(C)=O)CC[C@H]2[C@@H]3CCC4=CC(=O)CC[C@]4(C)[C@H]3CC[C@@]21C | 1.72 | 1.83 | -0.7 | 1.6 |
| C#C[C@]1(O)CC[C@H]2[C@@H]3CCC4=CC(=O)CC[C@@H]4[C@H]3[C@@H](Cl)C[C@@]21C | 2.32 | 2.11 | 1.48 | 2.06 |
| C[C@]12CCC(=O)C=C1CC[C@@H]1[C@@H]2CC[C@]2(C)C(=O)CC[C@@H]12 | -1 | -1 | -0.7 | -1 |
| C#C[C@]1(O)CC[C@H]2[C@@H]3CCC4=CC(=O)CCC4=C3C=C[C@@]21CC | 1.3 | – | – | – |
| CC(=O)[C@@]1(C)CC[C@H]2[C@@H]3CCC4=CC(=O)CCC4=C3C=C[C@@]21C | 1.74 | – | – | – |
| C#C[C@]1(O)CC[C@H]2[C@@H]3CCC4=CC(=O)CCC4=C3C=C[C@@]21CCC | 0.7 | – | – | – |
| C[C@]12CC[C@H]3[C@@H](CCC4=CC(=O)CC[C@@]43C)[C@@H]1CC[C@@H]2O | -0.22 | – | 0 | 0 |
